Among the data in PubChem BioAssay AID248 (DTP/NCI, 2004) are T/C values, retold here.

Molecules are shown by their SMILES. Toxic doses and inconclusive results are not listed.

The subject of the assay is L1210 leukemia ip in BDF1 mice, survival T/C. The experiment in a line: NCI In Vivo Anticancer Drug Screen. Data for tumor model L1210 Leukemia (intraperitoneal) in B6D2F1 (BDF1) mice. The note with it: endpoint: mean survival time, higher = longer survival. The procedure, abridged: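 Tumor was transplanted into mice, which were then dosed with test compound or vehicle alone. Survival was recorded for each group, and the treated figure was expressed relative to the control figure.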

[1] abbreviates: dose: 50.0 mg/kg/injection, schedule: Q01DX009 (ip), vehicle: saline with Tween-80.
The mark [2] stands for this setting: dose: 100.0 mg/kg/injection, schedule: Q01DX009 (ip), vehicle: saline with Tween-80.
Setting [3] is: dose: 200.0 mg/kg/injection, schedule: Q01DX009 (ip), vehicle: saline with Tween-80.
Where [4] appears, read: dose: 400.0 mg/kg/injection, schedule: Q01DX009 (ip), vehicle: saline with Tween-80.
The mark [5] stands for this setting: dose: 100.0 mg/kg/injection, schedule: Q01DX009 (ip), vehicle: Klucel (hydroxypropylcellulose) (HPC).
The mark [6] stands for this setting: dose: 100.0 mg/kg/injection, schedule: Q04DX003 (ip), vehicle: Klucel (hydroxypropylcellulose) (HPC).
Where [7] appears, read: dose: 200.0 mg/kg/injection, schedule: Q01DX009 (ip), vehicle: Klucel (hydroxypropylcellulose) (HPC).
The mark [8] stands for this setting: dose: 200.0 mg/kg/injection, schedule: Q04DX003 (ip), vehicle: Klucel (hydroxypropylcellulose) (HPC).
The mark [9] stands for this setting: dose: 400.0 mg/kg/injection, schedule: Q01DX009 (ip), vehicle: Klucel (hydroxypropylcellulose) (HPC).
[10] abbreviates: dose: 400.0 mg/kg/injection, schedule: Q04DX003 (ip), vehicle: Klucel (hydroxypropylcellulose) (HPC).
Setting [11] is: dose: 100.0 mg/kg/injection, schedule: Q04DX002 (ip), vehicle: Klucel (hydroxypropylcellulose) (HPC).
Setting [12] is: dose: 400.0 mg/kg/injection, schedule: Q04DX002 (ip), vehicle: Klucel (hydroxypropylcellulose) (HPC).

For the compound `COc1cc(Cc2nccc3cc(OC)c(OC)cc23)c(C(C)=O)cc1OC`, the T/C runs as follows: (dose: 0.9 mg/kg/injection, schedule: Q03HX024 (ip), vehicle: saline) 98 % of control; (dose: 1.8 mg/kg/injection, schedule: Q03HX024 (ip), vehicle: saline) 97 % of control; (dose: 2.9 mg/kg/injection, schedule: Q01DX Z (ip), vehicle: saline) 107 % of control; (dose: 3.5 mg/kg/injection, schedule: Q03HX024 (ip), vehicle: saline) 107 % of control; (dose: 4.4 mg/kg/injection, schedule: Q01DX Z (ip), vehicle: saline) 111 % of control; (dose: 6.6 mg/kg/injection, schedule: Q01DX Z (ip), vehicle: saline) 115 % of control. The T/C is 111 % of control (dose: 7.0 mg/kg/injection, schedule: Q03HX024 (ip), vehicle: saline); 97 % of control (dose: 7.0 mg/kg/injection, schedule: Q04DX003 (ip), vehicle: saline); 119 % of control (dose: 10.0 mg/kg/injection, schedule: Q01DX Z (ip), vehicle: saline); 104 % of control (dose: 14.0 mg/kg/injection, schedule: Q04DX003 (ip), vehicle: saline); 121 % of control (dose: 22.0 mg/kg/injection, schedule: Q01DX009 (ip), vehicle: saline); 120 % of control (dose: 28.0 mg/kg/injection, schedule: Q04DX003 (ip), vehicle: saline). Besides, the T/C reads like this: (dose: 33.0 mg/kg/injection, schedule: Q01DX009 (ip), vehicle: saline) 109 % of control; (dose: 35.0 mg/kg/injection, schedule: Q01DX009 (ip), vehicle: saline) 121 % of control; (dose: 50.0 mg/kg/injection, schedule: Q01DX009 (ip), vehicle: saline) 154 % of control; (dose: 56.0 mg/kg/injection, schedule: Q04DX003 (ip), vehicle: saline) 118 % of control; (dose: 75.0 mg/kg/injection, schedule: Q01DX009 (ip), vehicle: saline) 108 % of control; (dose: 75.0 mg/kg/injection, schedule: Q01DX Z (ip), vehicle: saline) 93 % of control.
For the compound `CCC/C=C/CCCCCC`, the T/C was 93 % of control under setting [1], 93 % of control under setting [2] and 104 % of control under setting [3].
On to `O=C1OCc2cccc3cccc1c23`, for which the T/C (dose: 100.0 mg/kg/injection, schedule: Q04DX003 (ip), vehicle: saline with Tween-80) was 115 % of control and the T/C (dose: 200.0 mg/kg/injection, schedule: Q04DX003 (ip), vehicle: saline with Tween-80) was 104 % of control.
Take `COc1ccc(C2(OC)Oc3cc(OC)ccc3-c3nc4ccccc4nc32)cc1` (stereo unspecified): the T/C (dose: 50.0 mg/kg/injection, schedule: Q01DX001 (ip), vehicle: saline) is 101 % of control; the T/C (dose: 100.0 mg/kg/injection, schedule: Q01DX001 (ip), vehicle: saline) was 101 % of control; the T/C (dose: 200.0 mg/kg/injection, schedule: Q01DX001 (ip), vehicle: saline) was 95 % of control; the T/C (dose: 400.0 mg/kg/injection, schedule: Q01DX001 (ip), vehicle: saline) was 101 % of control.
Regarding `CC1C2Cc3ccc(O)cc3C1(C)CCN2C/C=C\Cl` (stereo unspecified), the T/C is, setting by setting: under setting [2], 94 % of control; under setting [3], 95 % of control; under setting [4], 95 % of control.
For the compound `CCCCCCCCOC(=O)Nc1ccccc1`, the T/C is 100 % of control (dose: 25.0 mg/kg/injection, schedule: Q01DX009 (ip), vehicle: Klucel (hydroxypropylcellulose) (HPC)); 94 % of control (dose: 50.0 mg/kg/injection, schedule: Q01DX009 (ip), vehicle: Klucel (hydroxypropylcellulose) (HPC)); 100 % of control under setting [5].
Take `CCC(C)(O)C#CC#CC(C)(O)CC` (stereo unspecified): the T/C (dose: 6.25 mg/kg/injection, schedule: Q01DX009 (ip), vehicle: saline with Tween-80) was 93 % of control; the T/C (dose: 12.5 mg/kg/injection, schedule: Q01DX009 (ip), vehicle: saline with Tween-80) is 100 % of control; the T/C (dose: 12.5 mg/kg/injection, schedule: Q04DX003 (ip), vehicle: saline with Tween-80) was 101 % of control; the T/C (dose: 25.0 mg/kg/injection, schedule: Q01DX009 (ip), vehicle: saline with Tween-80) was 96 % of control; the T/C (dose: 25.0 mg/kg/injection, schedule: Q04DX003 (ip), vehicle: saline with Tween-80) was 97 % of control; the T/C (dose: 50.0 mg/kg/injection, schedule: Q04DX003 (ip), vehicle: saline with Tween-80) is 87 % of control. The T/C under setting [5] was 93 % of control; the T/C under setting [6] is 103 % of control; the T/C under setting [7] is 101 % of control; the T/C under setting [8] is 106 % of control; the T/C under setting [9] was 102 % of control; the T/C under setting [10] is 104 % of control.
As to `CCOC(=O)N(C)c1ccccc1`, the T/C reads like this: under setting [5], 101 % of control; under setting [6], 97 % of control; under setting [7], 105 % of control; under setting [8], 97 % of control; under setting [9], 101 % of control; under setting [10], 97 % of control.
As to `CCCCCCCC(=O)[O][Pb]([CH2]C)([CH2]C)[CH2]C`, the T/C (dose: 12.5 mg/kg/injection, schedule: Q04DX002 (ip), vehicle: DMSO) is 114 % of control.
Consider `Nc1ccc(O)c2ccccc12`, for which the T/C (dose: 6.25 mg/kg/injection, schedule: Q04DX003 (ip), vehicle: other) is 97 % of control.
In the case of `CN(C)CCC(C)(N)c1cccc2ccccc12` (stereo unspecified), the T/C runs as follows: (dose: 100.0 mg/kg/injection, schedule: Q04DX003 (ip), vehicle: saline) 113 % of control; (dose: 200.0 mg/kg/injection, schedule: Q04DX003 (ip), vehicle: saline) 107 % of control.
In the case of `O=C(Nc1cccc2ccccc12)SCc1ccccc1`, the T/C reads like this: under setting [11], 94 % of control; under setting [12], 90 % of control.
Take `O=[N+]([O-])c1ccc(N/N=C/c2cccc(CO)c2)c([N+](=O)[O-])c1`: the T/C reads like this: under setting [2], 98 % of control; under setting [3], 95 % of control; under setting [4], 100 % of control.
As for `O=C(CNC(=O)Nc1nccs1)N/N=C/c1ccc(Cl)cc1`, the T/C is 106 % of control under setting [1] and 89 % of control under setting [2].
`CCCCOC(OCCCC)c1ccccc1`: the T/C runs as follows: (dose: 50.0 mg/kg/injection, schedule: Q01DX001 (ip), vehicle: carboxymethylcellulose (CMC)) 95 % of control; (dose: 100.0 mg/kg/injection, schedule: Q01DX001 (ip), vehicle: carboxymethylcellulose (CMC)) 88 % of control.
Consider `Cc1cc(C)c(-n2c(C)cc(C(=O)O)c2C)c(C)c1C(=O)O`, for which the T/C by setting is: (dose: 100.0 mg/kg/injection, schedule: Q01DX001 (ip), vehicle: alcohol) 102 % of control; (dose: 200.0 mg/kg/injection, schedule: Q01DX001 (ip), vehicle: alcohol) 96 % of control; (dose: 400.0 mg/kg/injection, schedule: Q01DX001 (ip), vehicle: alcohol) 97 % of control.
With `O=C(C1CC1c1ccccc1)N1CCC(O)(c2ccccc2)CC1` (stereo unspecified), the T/C was 103 % of control (dose: 100.0 mg/kg/injection, schedule: Q04DX002 (ip), vehicle: saline with Tween-80); 100 % of control (dose: 200.0 mg/kg/injection, schedule: Q04DX002 (ip), vehicle: saline with Tween-80); 97 % of control (dose: 400.0 mg/kg/injection, schedule: Q04DX002 (ip), vehicle: saline with Tween-80).
Take `CCOC(=O)NNC(=S)NCc1ccccc1`: the T/C is, setting by setting: under setting [5], 102 % of control; under setting [7], 98 % of control.
`O=C(/C=C\c1ccccc1)OCc1ccccc1CN1C=CCC1`: the T/C under setting [11] is 86 % of control; the T/C (dose: 200.0 mg/kg/injection, schedule: Q04DX002 (ip), vehicle: Klucel (hydroxypropylcellulose) (HPC)) is 104 % of control; the T/C under setting [12] was 86 % of control.
For `CCOC(=O)/C=C\CC(O)CC` (stereo unspecified), the T/C was 105 % of control under setting [5]; 98 % of control under setting [6]; 105 % of control under setting [7]; 104 % of control under setting [8]; 118 % of control under setting [9]; 114 % of control under setting [10].
